# Measurements as given in patent US7803803B2, “Tetrahydrofuro[3,2-B] pyrrol-3-ones as cathepsin K inhibitors” (Amura Therapeutics Limited, priority 2007, dated 2010).
# Read-outs that look alike come from different tables or passages of the source.
# How the values were obtained:
# [1] = Plasma incubations (human plasma stability); format: in vitro ADME; conditions: 37° C. Further: tested at 25 µM.
# Procedure: Aliquots were removed at 2 and 60 minutes and quenched with an equal volume of cold acetonitrile. After mixing vigorously, the precipitated protein matter was removed by filtration (Multiscreen Solvinert filter plates, Millipore, Bedford, Mass., USA) and the filtrate analysed by reverse phase HPLC with mass spectrometric detection, using single ion monitoring of the [M+H]^+ species. Metabolic turnover was determined by comparison of peak areas from the ion chromatograms of the parent compound at 2 and 60 minutes and expressed as percent remaining at 1 hour.
# human osteoclasts = assay: Human osteoclast resorption assay; format: cell-based; conditions: read-out: Cell-based Human IC50
# Procedure: Bone resorption was studied using a model where human osteoclast precursor cells were cultured on bovine bone slices for 9 days and allowed to differentiate into bone-resorbing osteoclasts. The formed mature osteoclasts were then allowed to resorb bone. The assay was performed by Pharmatest Services Ltd, Itäinen Pitkakatu 4C, Turku, Finland. After the culture period, bone collagen degradation products were quantified from the culture medium as an index of bone resorption. Inhibitor compounds were added into the cell cultures after the differentiation period and their effects on the resorbing activity of mature osteoclasts were determined. The studies included a baseline group without added compounds and a positive control group where a potent cathepsin K inhibitor E-64 was added.
# Human peripheral blood monocytes were suspended to culture medium and allowed to attach to bovine bone slices. The bone slices were transferred into 96-well tissue culture plates containing culture medium with appropriate amounts of important growth factors favouring osteoclast differentiation, including M-CSF, RANK-ligand and TGF-[…]. The cells were incubated in a CO2 incubator in humidified atmosphere of 95% air and 5% carbon dioxide at 37° C. At day 7 when osteoclast differentiation was complete, the culture medium was replaced with culture medium containing conditions favouring osteoclast activity. The cell culture was continued for an additional 2 days, during which the formed mature osteoclasts were allowed to resorb bone in the presence of vehicle, control inhibitor (E64) or test compounds. At the end of the culture, bone collagen degradation products released into the culture medium were determined using a commercially available ELISA method (CrossLaps® for culture, Nordic Bioscience, Herlev, Denmark) as an index of bone resorption (see Bagger, Y. Z. et al, J. Bone. Miner. Res. 14 (suppl. 1), S370).
# cathepsin K = target: T1, cathepsin K (Homo sapiens, UniProt P43235); assay: In vitro cathepsin Ki inhibition measurements; format: biochemical; design: purchased B. Turk, Josef Stefan Institute, Ljubljana, Slovenia
# T1 sequence (P43235 115-329): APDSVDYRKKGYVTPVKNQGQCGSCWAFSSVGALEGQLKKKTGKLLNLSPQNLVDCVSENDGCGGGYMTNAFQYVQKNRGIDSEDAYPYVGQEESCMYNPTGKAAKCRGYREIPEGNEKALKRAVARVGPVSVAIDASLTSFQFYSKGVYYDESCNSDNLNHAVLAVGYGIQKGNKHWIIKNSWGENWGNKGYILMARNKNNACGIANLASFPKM
# Procedure: Stock solutions of substrate or inhibitor were made up to 10 mM in 100% dimethylsulfoxide (DMSO) (Rathburns, Glasgow, U.K.) and diluted as appropriately required. In all cases the DMSO concentration in the assays was maintained at less than 1% (vol./vol.). The equilibrium inhibition constants (Ki^SS) for each compound were measured under steady-state conditions monitoring enzyme activity as a function of inhibitor concentration. The values were calculated on the assumption of pure competitive behaviour (Cornish-Bowden, A. Fundamentals of enzyme kinetics Portland Press; 1995, 93-128). Human recombinant cathepsin K (0.25 nM final; B. Turk, Josef, Stefan Institute, Ljubljana, Slovenia), was routinely assayed in 100 mM sodium acetate; pH 5.5 containing 1 mM EDTA, 10 mM L-cysteine and 1.8 μM Z-Leu-Arg-AMC ([S]═KM).
# The apparent inhibition constant (Ki) for each compound was determined on the basis that inhibition was reversible and occurred by a pure-competitive mechanism. The Ki values were calculated, from the dependence of enzyme activity as a function of inhibitor concentration, by direct regression analysis (Prism v 3.02) using Equation 2 (Cornish-Bowden, A., 1995).
# In situations where the apparent dissociation constant (Ki^app) approached the enzyme concentrations, the Ki^app values were calculated using a quadratic solution in the form described by Equation 3 (Morrison, J. F. Trends Biochem. Sci., 7, 102-105, 1982; Morrison, J. F. Biochim. Biophys. Acta, 185, 269-286, 1969; Stone, S. R. and Hofsteenge, J. Biochemistry, 25, 4622-4628, 1986).
# Curves were fitted by non-linear regression analysis (Prism) using a fixed value for the enzyme concentration. Equation 4 was used to account for the substrate kinetics, where ‘Ki’ is the inhibition constant, ‘[So]’ is the initial substrate concentration and ‘KM^app’ is the apparent macroscopic binding (Michaelis) constant for the substrate (Morrison, 1982).
# LogD determinations = format: physicochemical; conditions: Ion-count method; for logD at 1 h: 1-octanol/phosphate buffered saline, pH 7.4, pH 7.4
# Procedure: LogD(PBS) determinations were performed in 96 well microtitre plates using a miniaturised “shake-flask” method. […] The plates were then capped and mixed vigorously for 1 hour on a microtitre plate shaker, after which they were left to stand, allowing the PBS and octanol phases to separate. The PBS layer was analysed by reverse phase HPLC with mass spectrometric detection, using single ion monitoring of the [M+H]^+ species.
# Where AUCstd and AUCpbs are the peak areas from the standard and test ion chromatograms respectively.
# [2] = human recombinant cathepsin K, read-out: In vitro Ki (nM) vs Cath K
# [3] = prior art examples of WO-A-02057270, recombinant human cathepsin K, read-out: Ki (nM) vs Human Cathepsin K
Compound,Human Plasma Stability % rem. @ 1 h [1] [%],Ki (cathepsin K; [2]) [nM],Ki (cathepsin K; [3]) [nM],further results
CCN1CCN(c2ccc(C(=O)N[C@H](C(=O)N3C[C@H](OC)[C@H]4OCC(=O)[C@H]43)C3CCCC3)cc2)CC1,90.9,3.6,,logD at 1 h (LogD determinations): 1.59
"4-(4-ethylpiperazin-1-yl)-N—((S)-1-((3aS,6R,6aS)-6-methoxy-3-oxodihydro-2H-furo[3,2-b]pyrrol-4(5H,6H,6aH)-yl)-4-methyl-1-oxopentan-2-yl)benzamide [Example 7]",,,> 15000,
"4-(4-ethylpiperazin-1-yl)-N—((S)-1-((3aS,6S,6aS)-6-methoxy-3-oxodihydro-2H-furo[3,2-b]pyrrol-4(5H,6H,6aH)-yl)-4,4dimethyl-1-oxopentan-2-yl)benzamide [Example 6]",,,> 20000,
"4-(4-ethylpiperazin-1-yl)-N—((S)-1-((3aS,6S,6aS)-6-methoxy-3-oxodihydro-2H-furo[3,2-b]pyrrol-4(5H,6H,6aH)-yl)-4-methyl-1-oxopentan-2-yl)benzamide [Example 5]",,,> 100000,
"CO[C@@H]1CN(C(=O)[C@H](CC(C)C)NC(=O)c2ccc(N3CCN(C)CC3)cc2)[C@@H]2C(=O)CO[C@@H]21 [Example 3, N—((S)-1-((3aS,6R,6aS)-6-methoxy-3-oxodihydro-2H-furo[3,2-b]pyrrol-4(5H,6H,6aH)-yl)-4-methyl-1-oxopentan-2-yl)-4-(4-methylpiperazin-1-yl)benzamide]",87,15.1,,LogD pH 7.4 (LogD determinations): 0.42
"CCN1CCN(c2ccc(C(=O)N[C@@H](CC(C)(C)C)C(=O)N3C[C@H](OC)[C@H]4OCC(=O)[C@H]43)cc2)CC1 [Example 6, 4-(4-ethylpiperazin-1-yl)-N—((S)-1-((3aS,6S,6aS)-6-methoxy-3-oxodihydro-2H-furo[3,2-b]pyrrol-4(5H,6H,6aH)-yl)-4,4dimethyl-1-oxopentan-2-yl)benzamide]",100,5.1,,logD at 1 h (LogD determinations): > 0.8; LogD pH 7.4 (LogD determinations): 1.46
"CCCN1CCN(c2ccc(C(=O)N[C@@H](CC(C)C)C(=O)N3C[C@H](OC)[C@H]4OCC(=O)[C@H]43)cc2)CC1 [Example 13, N—((S)-1-((3aS,6S,6aS)-6-methoxy-3-oxodihydro-2H-furo[3,2-b]pyrrol-4(5H,6H,6aH)-yl)-4-methyl-1-oxopentan-2-yl)-4-(4-propylpiperazin-1-yl)benzamide]",93,3.9,,LogD pH 7.4 (LogD determinations): 1.64
"N—((S)-1-((3aS,6R,6aR)-6-amino-3-oxodihydro-2H-furo[3,2-b]pyrrol-4(5H,6H,6aH)-yl)-4-methyl-1-oxopentan-2-yl)-4-(4-(2-methoxyethyl)piperazin-1-yl)benzamide [Example 24]",,,> 2000,
"N—((S)-1-((3aS,6R,6aS)-6-hydroxy-3-oxodihydro-2H-furo[3,2-b]pyrrol-4(5H,6H,6aH)-yl)-4-methyl-1-oxopentan-2-yl)-4-(4-(2-methoxyethyl)piperazin-1-yl)benzamide [Example 26]",,,> 8000,
"N—((S)-1-((3aS,6R,6aS)-6-methoxy-3-oxodihydro-2H-furo[3,2-b]pyrrol-4(5H,6H,6aH)-yl)-4,4-dimethyl-1-oxopentan-2-yl)-4-(1-propylpiperidin-4-yl)benzamide [Example 38]",,,> 4000,
"N—((S)-1-((3aS,6R,6aS)-6-methoxy-3-oxodihydro-2H-furo[3,2-b]pyrrol-4(5H,6H,6aH)-yl)-4,4-dimethyl-1-oxopentan-2-yl)-4-(4-methylpiperazin-1-yl)benzamide [Example 4]",,,> 100000,
"N—((S)-1-((3aS,6R,6aS)-6-methoxy-3-oxodihydro-2H-furo[3,2-b]pyrrol-4(5H,6H,6aH)-yl)-4-methyl-1-oxopentan-2-yl)-4-(4-methylpiperazin-1-yl)benzamide [Example 3]",,,> 4000,
"N—((S)-1-((3aS,6S,6aR)-6-amino-3-oxodihydro-2H-furo[3,2-b]pyrrol-4(5H,6H,6aH)-yl)-4-methyl-1-oxopentan-2-yl)-4-(4-(2-methoxyethyl)piperazin-1-yl)benzamide [Example 23]",,,> 3000,
"N—((S)-1-((3aS,6S,6aS)-6-methoxy-3-oxodihydro-2H-furo[3,2-b]pyrrol-4(5H,6H,6aH)-yl)-4,4-dimethyl-1-oxopentan-2-yl)-4-(4-methylpiperazin-1-yl)benzamide [Example 2]",,,> 50000,
"N—((S)-1-((3aS,6S,6aS)-6-methoxy-3-oxodihydro-2H-furo[3,2-b]pyrrol-4(5H,6H,6aH)-yl)-4-methyl-1-oxopentan-2-yl)-4-(4-methylpiperazin-1-yl)benzamide [Example 1]",,,> 20000,

# Further lines, with some results ahead:
Human Plasma Stability % rem. @ 1 h [1] [%],Ki (cathepsin K; [2]) [nM],Ki (cathepsin K; [3]) [nM],Compound,further results
93.6,1.8,,CO[C@H]1CN(C(=O)[C@@H](NC(=O)c2ccc(N3CCN(C)CC3)cc2)C2CCCC2)[C@@H]2C(=O)CO[C@H]12,IC50 (human osteoclasts): 52 nM; logD at 1 h (LogD determinations): 1.36
91.8,4.9,,CO[C@@H]1CN(C(=O)[C@@H](NC(=O)c2ccc(N3CCN(C)CC3)cc2)C2CCCC2)[C@@H]2C(=O)CO[C@@H]21,IC50 (human osteoclasts): 637 nM; logD at 1 h (LogD determinations): 0.75
90.7,3.4,,CCN1CCN(c2ccc(C(=O)N[C@H](C(=O)N3C[C@@H](OC)[C@H]4OCC(=O)[C@H]43)C3CCCC3)cc2)CC1,IC50 (human osteoclasts): 231 nM; logD at 1 h (LogD determinations): 0.95
98,8.6,,"CCCN1CCN(c2ccc(C(=O)N[C@@H](CC(C)(C)C)C(=O)N3C[C@H](OC)[C@H]4OCC(=O)[C@H]43)cc2)CC1 [Example 14, N—((S)-1-((3aS,6S,6aS)-6-methoxy-3-oxodihydro-2H-furo[3,2-b]pyrrol-4(5H,6H,6aH)-yl)-4,4-dimethyl-1-oxopentan-2-yl)-4-(4-propylpiperazin-1-yl)benzamide]",LogD pH 7.4 (LogD determinations): 1.74
96,3.5,,"COCCN1CCN(c2ccc(C(=O)N[C@@H](CC(C)C)C(=O)N3C[C@@H](N)[C@H]4OCC(=O)[C@H]43)cc2)CC1 [Example 24, N—((S)-1-((3aS,6R,6aR)-6-amino-3-oxodihydro-2H-furo[3,2-b]pyrrol-4(5H,6H,6aH)-yl)-4-methyl-1-oxopentan-2-yl)-4-(4-(2-methoxyethyl)piperazin-1-yl)benzamide]",logD at 1 h (LogD determinations): 0.01 to 0.76; LogD pH 7.4 (LogD determinations): 0.01
,,> 2500,"N—((S)-1-((3aS,6R,6aS)-6-methoxy-3-oxodihydro-2H-furo[3,2-b]pyrrol-4(5H,6H,6aH)-yl)-4-methyl-1-oxopentan-2-yl)-4-(4-(2-methoxyethyl)piperazin-1-yl)benzamide [Example 28]",
,,> 20000,"N—((S)-1-((3aS,6S,6aS)-6-methoxy-3-oxodihydro-2H-furo[3,2-b]pyrrol-4(5H,6H,6aH)-yl)-4-methyl-1-oxopentan-2-yl)-4-(4-(2-methoxyethyl)piperazin-1-yl)benzamide [Example 27]",
